According to patent US10647694B2, “Diphenylaminopyrimidine and triazine compound, and pharmaceutical composition and use thereof” (ARROMAX PHARMATECH CO., LTD., priority 2016, dated 2020):
Values belong to the compound of their own block, whether it stands above or below them.

Columns and labels:
Karpas 299 cells = assay: Tumor cell growth inhibition test (CCK8 detection), Karpas 299; format: cell-based, human
Description: (§1) Growth Inhibition Test of the Series of Compounds on Various Tumor Cells (CCK8 Detection)
(2) Karpas 299 human T lymphoma cell line, RPMI 1640+10% FBS+1% Sodium Pyruvate;
(§2) (1) Cell culture • a) Cells in logarithmic growth phase were collected, counted, and re-suspended in a complete medium. • b) The cell concentration was adjusted to an appropriate concentration, and inoculated into a 96-well plate in an amount of 100 μl of cell suspension per well. • c) The cells were incubated for 24 hrs in an incubator at 37° C. with 100% relative humidity and 5% CO2.
(§3) (2) Test of relative inhibition rate • 1) Cells in logarithmic growth phase were collected, counted, and re-suspended in a complete medium. The cell concentration was adjusted to an appropriate concentration (determined according to the optimal test result of cell density), and inoculated into a 96-well plate in an amount of 100 μl of cell suspension per well. The cells were incubated for 24 hrs in an incubator at 37° C. with 100% relative humidity and 5% CO2. • 2) The compound to be tested was diluted with the medium to the corresponding action concentration, and […] were added in an amount of 25 µl/well.
(§4) The IC50 curve was fitted using the software Graphpad Prism 5 and using the calculation formula log(inhibitor) vs response and the IC50 value was calculated.

NCI-H2228 cells = assay: Tumor cell growth inhibition test (CCK8 detection), NCI-H2228; format: cell-based, human
Description: as §1
(3) NCI-H2228 human non-small cell lung cancer cell line, RPMI 1640+10% FBS+1% Sodium Pyruvate;
as §2, §3, §4

Ba/F3 cells = assay: Tumor cell growth inhibition test (CCK8 detection), Ba/F3; format: cell-based, mouse
Description: as §1
(1) Ba/F3 mouse IL-3 dependent pro-B lymphocyte cell line, RPMI 1640+10% FBS+10 ng/ml Interleukin-3+1% Sodium Pyruvate;
as §2, §3, §4

NCI-H3122 cells = assay: Tumor cell growth inhibition test (CCK8 detection), NCI-H3122; format: cell-based, human
Description: as §1
(4) NCI-H3122 human lung cancer cell line, RPMI 1640+10% FBS+1% Sodium Pyruvate;
as §2, §3, §4

ALK enzyme = ALK enzyme (Homo sapiens, UniProt Q9UM73); assay: In-vitro ALK kinase inhibitory activity (HTRF kinEASE TK kit); format: biochemical; conditions: inhibitory activity for ALK enzyme, read-out: IC50 range
Description: Anaplastic Lymphoma Kinase (ALK) Inhibitory Activity The in-vitro kinase assay was performed using the HTRF kinEASE TK kit available from Cisbio. The operation steps are indicated in the instructions of the kit. This method was used to detect the inhibitory effect of the compound to be tested on the activity of ALK enzymes in vitro, including wild-type ALK (Cat.PV3867, Invitrogen), ALK L1196M (Cat. PV6168, Life technologies), and ALK F1174L (Cat. PV6160, Life technologies). The specific operation steps were as follows. […] In addition to the control wells, 4 μL of the diluted compound solution to be tested was added to the reaction wells, and 4 μL of the 2.5% DMSO solution corresponding to the ALK enzyme previously formulated was added to the control wells. (2) 2 μL of a TK-biotin substrate solution previously formulated in a substrate concentration corresponding to the ALK enzyme was added to all reaction wells. (3) 2 μL of a previously prepared enzyme solution of corresponding concentration was added to all the reaction wells except the negative wells, and 2 μL of the 1× kinase buffer corresponding to the enzyme was added to the negative wells to make up the volume. The plate was sealed with a membrane, and incubated for 10 min at room temperature after mixing uniformly, such that the compounds were bond to the enzyme fully. (4) 2 μL of an ATP solution in a concentration corresponding to the ALK enzyme was added to all the reaction wells to initiate the kinase reaction, where the enzyme reaction time by ALK was 60 minutes. (5) An ALK test solution was prepared 5 minutes before the end of the kinase reaction. Streptavidin-XL665 and TK antibody europium cryptate (1:100) solutions for assay having a concentration corresponding to the enzyme were prepared using the detection buffer in the kit. (6) After the completion of the kinase reaction, 5 μl of diluted Streptavidin-XL665 was added to all the reaction wells respectively, and mixed uniformly, and then the diluted TK antibody europium cryptate solution for assay was added immediately. (7) The plate was sealed, mixed uniformly and allowed to react at room temperature for 1 h. The fluorescence signal (excitation at 320 nm, and emission at 665 nm and 615 nm) was detected using the ENVISION instrument (Perkinelmer). The inhibition rate for each well was calculated from the values of the fully active wells and the background signal wells. The values of replicated wells were averaged, and the half-maximal inhibitory activity (IC50) of each compound to be tested was fitted with a professional drawing analysis software PRISM 5.0.

[1] = system: NCI-H2228 nude mice xenografts; assay: In-vivo pharmacodynamic evaluation, NCI-H2228 subcutaneous xenograft; conditions: 14 days, day 21
Description: In-Vivo Pharmacodynamic Evaluation
SCID Beige mice, female, 5-6 weeks old, weighed 18+2 g, purchased from Beijing HFK Bioscience Co., Ltd., bred in an SPF level environment.
NCI-H2228 cells were cultured in PRMI-1640 containing 10% fetal bovine serum (FBS) and 1% sodium pyruvate. The cells were cultured in an incubator at 37° C. with 5% CO2.
Establishment of subcutaneous tumor transplantation model in nude mice by cell inoculation: Tumor cells in logarithmic growth phase were collected, counted and re-suspended in PRMI-1640 basal medium. Matrigel was added at a ratio of 1:1, and the concentration of the cell suspension was adjusted to 6×10^7/ml. Tumor cells were subcutaneously inoculated to the right back of nude mice in an amount of 6×10^6/0.1 mL/mouse using a 1 mL syringe (with a […]).
When the tumor volume reached about 200 mm^3, the animals were randomly grouped according to randomized block method, so that the difference in tumor volume of each group was within 10% of the mean. There were 5 groups in total, each having 8 animals. The day of grouping was recorded as Day 0, and the animals were administered immediately after grouping. Compound I-3 of the present invention and Ceritinib were orally administered once a day for consecutive 14 days, and then observed for 7 days. The weight and tumor size of the animals were measured twice a week during the experiment. The clinical symptoms were observed and recorded daily. After the animals were weighed for the last time on Day 21, they were sacrificed by euthanization with CO2. The tumors were taken, weighed and photographed, and the average tumor size was calculated, to investigate the growth inhibitory effect of the test substance Compound I-3 on human lung cancer NCI-H2228 nude mice xenografts under the experimental conditions.
When the tumor in the tumor-bearing mice grew to a measurable size, the mice were randomly divided into 5 groups according to the principle of equal mean tumor volume using SPSS 17.0 software. Compound I-3 was administered by intragastric administration at a dosage of 30, 10, and 3 mg/kg per day. The positive control ceritinib was administered by intragastric administration at a dose of 10 mg/kg per day in a volume of 0.1 ml/10 g. These agents were administered once a day for consecutive 14 days. The animals in the negative control group were given an equal amount of solvent (1% DMSO in physiological saline). During the administration and recovery periods, the body weight and tumor size of the mice were measured 2-3 times per week. The tumor volume and relative tumor volume were calculated based on the measured data. The tumor volume (TV) was calculated by a formula below: TV=1/2×a×b^2, where a and b represent the major and minor diameters of the tumor, respectively. According to the measurement results, the relative tumor volume (RTV) was calculated, by a formula below: RTV=Vt/V0, where V0 is the tumor volume at the start of the experiment, and Vt is the tumor volume measured each time.

ALK enzyme, sequence (Q9UM73 19-1620 limits assumed): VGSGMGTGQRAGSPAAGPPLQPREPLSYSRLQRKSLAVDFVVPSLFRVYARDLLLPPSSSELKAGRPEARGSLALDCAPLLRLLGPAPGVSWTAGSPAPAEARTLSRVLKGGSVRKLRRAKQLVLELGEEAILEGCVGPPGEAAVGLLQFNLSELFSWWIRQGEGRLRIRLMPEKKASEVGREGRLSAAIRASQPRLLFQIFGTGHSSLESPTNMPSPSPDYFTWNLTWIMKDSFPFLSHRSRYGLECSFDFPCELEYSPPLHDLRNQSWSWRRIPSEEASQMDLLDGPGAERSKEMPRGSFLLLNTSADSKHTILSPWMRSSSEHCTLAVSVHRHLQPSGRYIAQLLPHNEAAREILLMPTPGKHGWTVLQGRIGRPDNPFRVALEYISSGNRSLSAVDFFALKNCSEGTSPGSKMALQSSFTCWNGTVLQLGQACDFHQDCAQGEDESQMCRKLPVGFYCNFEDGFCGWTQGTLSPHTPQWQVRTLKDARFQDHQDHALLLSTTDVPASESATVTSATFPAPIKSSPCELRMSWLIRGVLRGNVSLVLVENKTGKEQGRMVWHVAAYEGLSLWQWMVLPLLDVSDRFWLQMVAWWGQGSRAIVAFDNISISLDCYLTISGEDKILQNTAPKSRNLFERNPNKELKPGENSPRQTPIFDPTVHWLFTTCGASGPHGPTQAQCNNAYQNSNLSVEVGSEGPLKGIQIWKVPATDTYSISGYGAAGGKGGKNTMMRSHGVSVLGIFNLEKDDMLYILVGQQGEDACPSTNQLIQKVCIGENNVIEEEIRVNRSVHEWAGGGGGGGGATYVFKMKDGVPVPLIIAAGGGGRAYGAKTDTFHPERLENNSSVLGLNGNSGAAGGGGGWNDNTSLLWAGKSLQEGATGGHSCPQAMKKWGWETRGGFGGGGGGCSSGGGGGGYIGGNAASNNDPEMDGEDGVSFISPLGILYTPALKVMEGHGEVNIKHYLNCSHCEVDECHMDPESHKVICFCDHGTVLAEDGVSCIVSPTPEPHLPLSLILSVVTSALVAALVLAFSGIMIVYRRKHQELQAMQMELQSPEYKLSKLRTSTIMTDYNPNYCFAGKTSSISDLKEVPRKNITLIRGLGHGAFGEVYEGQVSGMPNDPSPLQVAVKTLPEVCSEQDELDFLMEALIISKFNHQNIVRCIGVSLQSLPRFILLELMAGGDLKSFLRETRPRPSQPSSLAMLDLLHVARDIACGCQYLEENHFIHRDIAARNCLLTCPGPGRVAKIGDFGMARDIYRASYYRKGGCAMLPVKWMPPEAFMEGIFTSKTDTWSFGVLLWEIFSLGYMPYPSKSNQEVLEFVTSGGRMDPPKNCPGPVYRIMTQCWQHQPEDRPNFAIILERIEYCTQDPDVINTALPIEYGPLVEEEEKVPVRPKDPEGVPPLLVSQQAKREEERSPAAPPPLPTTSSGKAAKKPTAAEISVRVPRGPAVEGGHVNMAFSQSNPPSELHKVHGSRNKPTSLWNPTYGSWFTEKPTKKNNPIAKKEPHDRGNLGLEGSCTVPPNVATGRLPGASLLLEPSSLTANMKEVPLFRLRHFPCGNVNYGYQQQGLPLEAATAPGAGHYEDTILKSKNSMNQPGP

Compound: 5-chloro-N2-(2-D6-ethoxy-5-methyl-4-(piperidin-4-yl)phenyl)-N4-(2-(isopr opylsulfonyl)phenyl))pyrimidin-2,4-diamine [Compound I-14]
- IC50 (Karpas 299 cells; 72 hrs): 5.23 nM
- IC50 (NCI-H2228 cells; 72 hrs): 45.5 nM
- IC50 (Ba/F3 cells; 72 hrs): 1990 nM
- IC50 (NCI-H3122 cells; 72 hrs): 6.09 nM
- IC50 (ALK enzyme): 1 to 10 nM

Compound: [2H]C([2H])([2H])Oc1cc(C2CCNCC2)c(C)cc1Nc1ncc(Cl)c(Nc2ccccc2S(=O)(=O)C(C)C)n1 [Compound I-3, 5-chloro-N4-(2-(isopropylsulfonyl)phenyl)-N2-(2-D3-methoxy-5-methyl-4-(piperidin-4-yl)phenyl)pyrimidin-2,4-diamine]
- IR (%) ([1]; 3 mg/kg qd intragastric): 12.86%
- RTV d21 ([1]; 3 mg/kg qd intragastric): 3.12 ± 0.23
- T/C (%) ([1]; 3 mg/kg qd intragastric): 77.45%
- IR (%) ([1]; 10 mg/kg qd intragastric): 53.39%
- RTV d21 ([1]; 10 mg/kg qd intragastric): 1.70 ± 0.20
- T/C (%) ([1]; 10 mg/kg qd intragastric): 45.33%
- IR (%) ([1]; 30 mg/kg qd intragastric): 77.14%
- RTV d21 ([1]; 30 mg/kg qd intragastric): 0.79 ± 0.17
- T/C (%) ([1]; 30 mg/kg qd intragastric): 21.07%

Compound: COc1cc(N2CCC(N3CCSCC3)CC2)ccc1Nc1ncc(Cl)c(Nc2ccccc2S(=O)(=O)C(C)C)n1 [Compound I-33, 5-chloro-N4-(2-(isopropylsulfonyl)phenyl)-N2-(2-D3-methoxy-4-(4-thiomorpholinopiperidin-1-yl)phenyl)pyrimidin-2,4-diamine]
- IC50 (ALK enzyme): 1 to 10 nM

Compound: COc1cc(C2CCNCC2)c(C)cc1Nc1ncc(Cl)c(Nc2ccccc2P(C)(C)=O)n1 [Compound I-38, 5-chloro-N4-(2-(dimethylphosphoryl)phenyl)-N2-(2-D3-methoxy-5-methyl-4-(piperidin-4-yl)phenyl)pyrimidin-2,4-diamine]
- IC50 (ALK enzyme): 1 to 10 nM

Compound: COc1cc(C2CCNCC2)c(C)cc1Nc1ncnc(Nc2ccccc2S(=O)(=O)C(C)C)n1 [Compound I-40, N2-(2-(isopropylsulfonyl)phenyl)-N4-(2-D3-methoxy-5-methyl-4-(piperidin-4-yl)phenyl)-1,3,5-triazin-2,4-diamine]
- IC50 (ALK enzyme): 1 to 10 nM

Compound: COc1cc(N2CCNCC2)ccc1Nc1ncnc(Nc2ccccc2S(=O)(=O)C(C)C)n1 [Compound I-41, N2-(2-D3-methoxy-4-(piperazin-1-yl)phenyl)-N4-(2-(isopropylsulfonyl)phenyl)-1,3,5-triazin-2,4-diamine]
- IC50 (ALK enzyme): 1 to 10 nM

More lines, now with the values ahead:

- IC50 (Karpas 299 cells; Homo sapiens, KARPAS-299, 72 hrs): 45.7 nM
- IC50 (NCI-H2228 cells; Homo sapiens, NCI-H2228, 72 hrs): 111 nM
- IC50 (Ba/F3 cells; Mus musculus, BaF3, 72 hrs): 2890 nM
- IC50 (NCI-H3122 cells; Homo sapiens, NCI-H3122, 72 hrs): 28.4 nM
Compound: [2H]C([2H])([2H])C([2H])(Oc1cc(C2CCNCC2)c(C)cc1Nc1ncc(Cl)c(Nc2ccccc2S(=O)(=O)C(C)C)n1)C([2H])([2H])[2H]

- IC50 (ALK enzyme): 10 to 100 nM
Compound: COc1cc(C2CCNCC2)c(C)cc1Nc1nc(Nc2ccccc2S(=O)(=O)C(C)C)c2[nH]ccc2n1 [Compound I-31, N4-(2-(isopropylsulfonyl)phenyl)-N2-(2-D3-methoxy-5-methyl-4-(piperidin-4-yl)phenyl)-5H-pyrrolo[3,2-d]pyrimidin-2,4-diamine]

- IC50 (ALK enzyme): 10 to 100 nM
Compound: COc1cc(C2CCNCC2)c(C)cc1Nc1nc(Nc2ccccc2S(=O)(=O)C(C)C)c2ccsc2n1 [Compound I-32, N4-(2-(isopropylsulfonyl)phenyl)-N2-(2-D3-methoxy-5-methyl-4-(piperidin-4-yl)phenyl)thieno[2,3-d]pyrimidin-2,4-diamine]

- IC50 (ALK enzyme): 1 to 10 nM
Compound: COc1cc(N2CCC(N3CCC(N)CC3)CC2)ccc1Nc1ncc(Cl)c(Nc2ccccc2S(=O)(=O)C(C)C)n1 [Compound I-34, N2-(4-(4-amino-[1,4′-bipyridin]-1′-yl)-2-D3-methoxyphenyl)-5-chloro-N4-(2-(isopropylsulfonyl)phenyl)pyrimidin-2,4-diamine]

- IC50 (ALK enzyme): 1 to 10 nM
Compound: COc1cc(N2CCC(N3CCOCC3)CC2)ccc1Nc1ncc(Cl)c(Nc2ccccc2S(=O)(=O)C(C)C)n1 [Compound I-35, 5-chloro-N4-(2-(isopropylsulfonyl)phenyl)-N2-(2-D3-methoxy-4-(4-morpholinopiperidin-1-yl)phenyl)pyrimidin-2,4-diamine]

- IC50 (ALK enzyme): 1 to 10 nM
Compound: COc1cc(N2CCC(N(C)C)CC2)ccc1Nc1ncc(Cl)c(Nc2ccccc2P(C)(C)=O)n1 [Compound I-37, (2-((5-chloro-2-((4-(4-(dimethylamino)piperidin-1-yl)-2-D3-methoxyphenyl)amino)pyrimidin-4-yl)amino)phenyl)dimethylphosphorus oxide]

- IC50 (ALK enzyme): 1 to 10 nM
Compound: COc1cc(C2CCNCC2)ccc1Nc1ncnc(Nc2ccccc2S(=O)(=O)C(C)C)n1 [Compound I-39, N2-(2-(isopropylsulfonyl)phenyl)-N4-(2-D3-methoxy-4-(4-piperidin-4-yl)phenyl)-1,3,5-triazin-2,4-diamine]

- IC50 (ALK enzyme): 1 to 10 nM
Compound: COc1cc(N2CCNCC2)c(C)cc1Nc1ncnc(Nc2ccccc2S(=O)(=O)C(C)C)n1 [Compound I-42, N2-(2-D3-methoxy-4-(piperazin-1-yl)-5-methyl-phenyl)-N4-(2-(isopropylsulfonyl)phenyl)-1,3,5-triazin-2,4-diamine]

- IC50 (ALK enzyme): 1 to 10 nM
Compound: COc1cc(N2CCC(N3CCN(C)CC3)CC2)ccc1Nc1ncnc(Nc2ccccc2S(=O)(=O)C(C)C)n1 [Compound I-43, N2-(2-(isopropylsulfonyl)phenyl)-N4-(2-D3-methoxy-4-(4-(4-methylpiperazin-1-yl)piperidin-1-yl)phenyl)-1,3,5-triazin-2,4-diamine]
